Assay results taken from article PMC4372995 (Journal of the American Chemical Society, 2015).
Where two headings read alike, the source gives them in different places.

Assays:
Format in all cases: cell-based
[1] = molecular target: T1, RhlR (Pseudomonas aeruginosa, UniProt P54292); assay: RhlR reporter antagonism in E. coli, […] vs […] BHL; details: read-out: E. coli / RhlR ^b / antagonism (%) ^g
[2] = molecular target: T1, RhlR; assay: RhlR reporter antagonism in E. coli, […] vs […] BHL; details: read-out: E. coli / RhlR ^b / antagonism (%) ^g; remark: listed apart in the source
[3] = molecular target: T1, RhlR; assay: RhlR reporter agonism in E. coli at […]; details: 100 µM

T1 sequence (P54292 whole entry): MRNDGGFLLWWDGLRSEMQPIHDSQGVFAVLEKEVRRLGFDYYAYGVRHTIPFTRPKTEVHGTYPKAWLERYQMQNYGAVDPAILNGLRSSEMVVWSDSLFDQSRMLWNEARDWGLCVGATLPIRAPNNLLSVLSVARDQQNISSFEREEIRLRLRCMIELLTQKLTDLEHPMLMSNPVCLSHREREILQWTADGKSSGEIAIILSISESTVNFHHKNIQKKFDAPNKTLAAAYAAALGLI

Compound `O=C(COc1ccc(I)cc1)N[C@H]1CCOC1=O` [E22] has an inhibition at 100 µM [1] of 74%.
For `O=C(Cc1ccc(I)cc1)N[C@H]1CCOC1=O` [C10], the inhibition at 100 µM [2] was 84%.
With `O=C(CCCOc1cccc(Br)c1)NC1CCSC1=O` (stereo not drawn) [compound 5, mBTL] the “PAO1 / pyocyanin inhibition (%)” value [3] was 83 % agonism at 100 µM.
